Experimental data reported in PubChem BioAssay AID1845213 (Molecular Pharmacology Branch, DTP, NCI, 2023).
Values joined by “and” are separate entries in the source; they are usually repeats but may differ in a detail not shown here. Equal entries are not always repeated. Blank lines part the entries; values can stand above or below the molecule they belong to. Active and inactive are the calls of the source. The calls were made as follows: active = viability on the fitted dose curve at most 10% of control; inactive = the rest.

System: NCI-H841 complex tumor spheroid viability
Assay: Anticancer human tumor NCI-H841 cell line growth inhibition;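 as to IC50: spheroids exposed to compounds for 7 days before readout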;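 as to viability, T/C: spheroids exposed to compounds for 7 days before readout; 100% = DMSO vehicle control wells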
Details: for viability, T/C: stronger effect = lower value
Procedure, shortened: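 Single agents and combinations were tested on spheroids built from tumor cells plus HUVEC and hMSC, at half-log dilutions starting at or near clinical Cmax, else 10 microM; final DMSO 0.25% (v/v).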

[1] = curve of first compound, second compound 0.003 µM
[2] = curve of first compound, second compound 0.00949 µM
[3] = curve of first compound, second compound 0.03 µM
[4] = curve of first compound, second compound 0.0949 µM
[5] = curve of first compound, second compound 0.3 µM

SMILES: Cc1sc2c(c1C)C(c1ccc(Cl)cc1)=NC(CC(=O)Nc1ccc(O)cc1)c1nnc(C)n1-2 (stereo not drawn) + CC[C@@]1(O)C(=O)OCc2c1cc1n(c2=O)Cc2cc3c(CN(C)C)c(O)ccc3nc2-1
IC50 [1]: 152 nM
IC50 [2]: 12.7 nM
IC50 [3]: < 9.49 nM
IC50 [4]: < 9.49 nM
IC50 [5]: < 9.49 nM
viability, T/C (second compound 0.003 µM, first compound 0.00949 µM): 88%
viability, T/C (second compound 0.003 µM, first compound 0.03 µM): 85%
viability, T/C (second compound 0.003 µM, first compound 0.0949 µM): 66.2%
viability, T/C (second compound 0.003 µM, first compound 0.3 µM): 26.5%
viability, T/C (second compound 0.003 µM, first compound 0.949 µM): 6.68%
viability, T/C (second compound 0.003 µM, first compound 3 µM): 1.61%
viability, T/C (second compound 0.00949 µM, first compound 0.00949 µM): 63.4%
viability, T/C (second compound 0.00949 µM, first compound 0.03 µM): 9.92%
viability, T/C (second compound 0.00949 µM, first compound 0.0949 µM): 27.9%
viability, T/C (second compound 0.00949 µM, first compound 0.3 µM): 4.81%
viability, T/C (second compound 0.00949 µM, first compound 0.949 µM): 1.04%
viability, T/C (second compound 0.00949 µM, first compound 3 µM): 0.47%
viability, T/C (second compound 0.03 µM, first compound 0.00949 µM): 1.92%
viability, T/C (second compound 0.03 µM, first compound 0.03 µM): 4.07%
viability, T/C (second compound 0.03 µM, first compound 0.0949 µM): 0.85%
viability, T/C (second compound 0.03 µM, first compound 0.3 µM): 0.58%
viability, T/C (second compound 0.03 µM, first compound 0.949 µM): 0.55%
viability, T/C (second compound 0.03 µM, first compound 3 µM): 0.5%
viability, T/C (second compound 0.0949 µM, first compound 0.00949 µM): 1.59%
viability, T/C (second compound 0.0949 µM, first compound 0.03 µM): 1.44%
viability, T/C (second compound 0.0949 µM, first compound 0.0949 µM): 0.98%
viability, T/C (second compound 0.0949 µM, first compound 0.3 µM): 0.78%
viability, T/C (second compound 0.0949 µM, first compound 0.949 µM): 0.62%
viability, T/C (second compound 0.0949 µM, first compound 3 µM): 5.05%
viability, T/C (second compound 0.3 µM, first compound 0.00949 µM): 1.48%
viability, T/C (second compound 0.3 µM, first compound 0.03 µM): 1.46%
viability, T/C (second compound 0.3 µM, first compound 0.0949 µM): 1.06%
viability, T/C (second compound 0.3 µM, first compound 0.3 µM): 0.57%
viability, T/C (second compound 0.3 µM, first compound 0.949 µM): 0.28%
viability, T/C (second compound 0.3 µM, first compound 3 µM): 0.2%

SMILES: Cc1cc(C)c(CNC(=O)c2cc(-c3ccc(CN4CCOCC4)cc3)cc3c2cnn3C2CCCC2)c(=O)[nH]1
viability, T/C (compound 0.0316 µM): 101% and 99.7% and 102%
viability, T/C (compound 0.1 µM): 103% and 98.5% and 102%
viability, T/C (compound 0.316 µM): 99.7% and 106% and 98.5%
viability, T/C (compound 1 µM): 99.8% and 93.7% and 97.1%
viability, T/C (compound 3.16 µM): 87.3% and 84.7% and 80.8%
viability, T/C (compound 10 µM): 65.2% and 43.9% and 50.7%
IC50 (curve of compound): > 10000 nM and 8450 nM

SMILES: CC(C)n1c(=O)n(C)c2cnc3cc(F)c(-c4ccc(OCCCN5CCCCC5)nc4)cc3c21 + Cn1nnc2c(C(N)=O)ncn2c1=O
IC50 (curve of first compound, second compound 1 µM): > 10000 nM
IC50 (curve of first compound, second compound 3.16 µM): > 10000 nM
IC50 (curve of first compound, second compound 10 µM): > 10000 nM
IC50 (curve of first compound, second compound 31.6 µM): 8520 nM
IC50 (curve of first compound, second compound 100 µM): 3910 nM
viability, T/C (second compound 1 µM, first compound 0.0316 µM): 91.3%
viability, T/C (second compound 1 µM, first compound 0.1 µM): 93.5%
viability, T/C (second compound 1 µM, first compound 0.316 µM): 95.3%
viability, T/C (second compound 1 µM, first compound 1 µM): 92.3%
viability, T/C (second compound 1 µM, first compound 3.16 µM): 85.8%
viability, T/C (second compound 1 µM, first compound 10 µM): 57.5%
viability, T/C (second compound 3.16 µM, first compound 0.0316 µM): 94.5%
viability, T/C (second compound 3.16 µM, first compound 0.1 µM): 96.1%
viability, T/C (second compound 3.16 µM, first compound 0.316 µM): 99.9%
viability, T/C (second compound 3.16 µM, first compound 1 µM): 90.5%
viability, T/C (second compound 3.16 µM, first compound 3.16 µM): 89.3%
viability, T/C (second compound 3.16 µM, first compound 10 µM): 77.4%
viability, T/C (second compound 10 µM, first compound 0.0316 µM): 93.1%
viability, T/C (second compound 10 µM, first compound 0.1 µM): 94.1%
viability, T/C (second compound 10 µM, first compound 0.316 µM): 94.8%
outcome (second compound 10 µM, first compound 1 µM): inactive
viability, T/C (second compound 10 µM, first compound 3.16 µM): 88%
viability, T/C (second compound 10 µM, first compound 10 µM): 62.4%
viability, T/C (second compound 31.6 µM, first compound 0.0316 µM): 91%
viability, T/C (second compound 31.6 µM, first compound 0.1 µM): 92.2%
viability, T/C (second compound 31.6 µM, first compound 0.316 µM): 87.9%
viability, T/C (second compound 31.6 µM, first compound 1 µM): 88.4%
viability, T/C (second compound 31.6 µM, first compound 3.16 µM): 76.2%
viability, T/C (second compound 31.6 µM, first compound 10 µM): 45.8%
viability, T/C (second compound 100 µM, first compound 0.0316 µM): 84.4%
viability, T/C (second compound 100 µM, first compound 0.1 µM): 82.8%
viability, T/C (second compound 100 µM, first compound 0.316 µM): 77.9%
viability, T/C (second compound 100 µM, first compound 1 µM): 75.9%
viability, T/C (second compound 100 µM, first compound 3.16 µM): 52.9%
viability, T/C (second compound 100 µM, first compound 10 µM): 35.5%

IC50 (compound alone, run of 11/07/2019): 12 nM [middle of 5 runs]
IC50 (compound alone, run of 12/16/2019): 15.8 nM [middle of 4 runs]
SMILES: CC[C@@]1(O)C(=O)OCc2c1cc1n(c2=O)Cc2cc3c(CN(C)C)c(O)ccc3nc2-1
viability, T/C (compound 0.003 µM): 98.1% [middle of 10 runs]
viability, T/C (compound 0.03 µM): 2.24% [middle of 10 runs]
viability, T/C (compound 0.0949 µM): 1.86% [middle of 10 runs]
viability, T/C (compound 0.3 µM): 1.86% [middle of 10 runs]

SMILES: COc1ccc([C@@H](O)c2cc(-c3ncnc4cc(N5CCOCC5)ccc34)c(F)cc2Cl)nn1 + CC[C@@]1(O)C(=O)OCc2c1cc1n(c2=O)Cc2cc3c(CN(C)C)c(O)ccc3nc2-1
IC50 [1]: 3830 nM
IC50 [2]: 1220 nM
IC50 [3]: < 31.6 nM
IC50 [4]: < 31.6 nM
IC50 [5]: < 31.6 nM
viability, T/C (second compound 0.003 µM, first compound 0.0316 µM): 95.6%
viability, T/C (second compound 0.003 µM, first compound 0.1 µM): 95.9%
viability, T/C (second compound 0.003 µM, first compound 0.316 µM): 94.9%
viability, T/C (second compound 0.003 µM, first compound 1 µM): 86.5%
viability, T/C (second compound 0.003 µM, first compound 3.16 µM): 58%
viability, T/C (second compound 0.003 µM, first compound 10 µM): 10.6%
viability, T/C (second compound 0.00949 µM, first compound 0.0316 µM): 83.1%
viability, T/C (second compound 0.00949 µM, first compound 0.1 µM): 83.6%
viability, T/C (second compound 0.00949 µM, first compound 0.316 µM): 76.3%
viability, T/C (second compound 0.00949 µM, first compound 1 µM): 52.6%
viability, T/C (second compound 0.00949 µM, first compound 3.16 µM): 27.9%
viability, T/C (second compound 0.00949 µM, first compound 10 µM): 6.04%
viability, T/C (second compound 0.03 µM, first compound 0.0316 µM): 4.02%
viability, T/C (second compound 0.03 µM, first compound 0.1 µM): 2.47%
viability, T/C (second compound 0.03 µM, first compound 0.316 µM): 1.69%
viability, T/C (second compound 0.03 µM, first compound 1 µM): 1.88%
viability, T/C (second compound 0.03 µM, first compound 3.16 µM): 1.8%
viability, T/C (second compound 0.03 µM, first compound 10 µM): 1.21%
viability, T/C (second compound 0.0949 µM, first compound 0.0316 µM): 1.56%
viability, T/C (second compound 0.0949 µM, first compound 0.1 µM): 1.55%
viability, T/C (second compound 0.0949 µM, first compound 0.316 µM): 1.96%
viability, T/C (second compound 0.0949 µM, first compound 1 µM): 1.31%
viability, T/C (second compound 0.0949 µM, first compound 3.16 µM): 0.92%
viability, T/C (second compound 0.0949 µM, first compound 10 µM): 0.89%
viability, T/C (second compound 0.3 µM, first compound 0.0316 µM): 1.74%
viability, T/C (second compound 0.3 µM, first compound 0.1 µM): 1.64%
viability, T/C (second compound 0.3 µM, first compound 0.316 µM): 1.32%
viability, T/C (second compound 0.3 µM, first compound 1 µM): 1.22%
viability, T/C (second compound 0.3 µM, first compound 3.16 µM): 0.55%
viability, T/C (second compound 0.3 µM, first compound 10 µM): 0.42%
